Experimental data published in patent US20250332266A1, “COMPOUNDS FOR THE DEGRADATION OF EGFR KINASE” (BeiGene Switzerland GmbH, priority 2022, published 2025).

Experiments:
[1] = molecular target: EGFR Del19/T790M/C797S (H1975-clone #28) (Homo sapiens, UniProt P00533, T790M/C797S, form not given); assay: EGFR degradation, HTRF total-EGFR assay, H1975-clone #28 (DTC); assay type: cell-based; settings: H1975-clone #28 Del19/T790M/C797S, 16 h treatment
Summary of the method: (§1)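 H1975 clones with endogenous EGFR knocked out and homozygous exogenous EGFR mutants (#28 Del19/T790M/C797S; #25 L858R/T790M/C797S) treated 16 h at 37 °C, 8 doses, 5-fold from 10 μM, 0.2% DMSO. Total EGFR measured by HTRF on lysates, normalised to DMSO controls; DC50 and Dmax from curve fit.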

[2] = molecular target: T1, EGFR L858R/T790M/C797S (H1975-clone #25) (Homo sapiens, UniProt P00533, C797S/L858R/T790M); assay: EGFR degradation, HTRF total-EGFR assay, H1975-clone #25 (LTC); assay type: cell-based; settings: H1975-clone #25 L858R/T790M/C797S, 16 h treatment
T1 construct: expressed in transfected cells; host or cells: H1975 (clone #25), lentiviral transduction, endogenous EGFR knocked out
Summary of the method: as §1

Compound	Degradation H1975 # 28 DTC [1]	Degradation H1975 # 25-LTC [2]
Cc1cc2cc(n1)-c1cnn(C)c1OC[C@H]1C[C@@H](CN3/C(=N/C2=O)Nc2ccc(N4C5CCC4CN(C4CCN(c6cnc(C7CCC(=O)NC7=O)cc6C)CC4)C5)cc23)C1 (some centres unmarked) [Example 130, 3-(5-(4-(8-((7^1s,7^3s,E)-1^1,2^6-dimethyl-3-oxo-5^2,5^3-dihydro-1^1H,5^1H-9-oxa-4-aza-5(2,1)-benzo[d]imidazola-2(2,4)-pyridina-1(4,5)-pyrazola-7(1,3)-cyclobutanacyclononaphane-5^6-yl)-3,8-diazabicyclo[3.2.1]octan-3-yl)piperidin-1-yl)-4-methylpyridin-2-yl)piperidine-2,6-dione]	83.4	90.7
Cc1cc2cc(n1)-c1cnn(C)c1OC[C@H]1C[C@@H](CN3/C(=N/C2=O)Nc2ccc(N4CC5CCC4CN5C4CCN(c5cnc(C6CCC(=O)NC6=O)cc5C)CC4)cc23)C1 (some centres unmarked) [Example 132, 3-(5-(4-(5-((7^1s,7^3s,E)-1^1,2^6-dimethyl-3-oxo-5^2,5^3-dihydro-1^1H,5^1H-9-oxa-4-aza-5(2,1)-benzo[d]imidazola-2(2,4)-pyridina-1(4,5)-pyrazola-7(1,3)-cyclobutanacyclononaphane-5^6-yl)-2,5-diazabicyclo[2.2.2]octan-2-yl)piperidin-1-yl)-4-methylpyridin-2-yl)piperidine-2,6-dione]	77.3	88.3
Cc1cc2cc(n1)-c1cnn(C)c1OC[C@H]1C[C@@H](CN3/C(=N/C2=O)Nc2ccc(N4CCN([C@@H]5CCN(c6cnc(C7CCC(=O)NC7=O)cc6C)C[C@@H]5F)CC4)cc23)C1 (stereo partly drawn) [Example 133, 3-(5-((3S,4R)-4-(4-((7^1s,7^3S,E)-1^1,2^6-dimethyl-3-oxo-5^2,5^3-dihydro-1^1H,5^1H-9-oxa-4-aza-5(2,1)-benzo[d]imidazola-2(2,4)-pyridina-1(4,5)-pyrazola-7(1,3)-cyclobutanacyclononaphane-5^6-yl)piperazin-1-yl)-3-fluoropiperidin-1-yl)-4-methylpyridin 2-yl)piperidine-2,6-dione]	88.8	92.1
Cc1cc2cc(n1)-c1cnn(C)c1OC[C@H]1C[C@@H](CN3/C(=N/C2=O)Nc2ccc(N4CCN([C@H]5CCN(c6cnc(C7CCC(=O)NC7=O)cc6C)C[C@H]5F)CC4)cc23)C1 (stereo partly drawn) [Example 134, 3-(5-((3R,4S)-4-(4-((7^1s,7^3R,E)-1^1,2^6-dimethyl-3-oxo-5^2,5^3-dihydro-1^1H,5′H-9-oxa-4-aza-5(2,1)-benzo[d]imidazola-2(2,4)-pyridina-1(4,5)-pyrazola-7(1,3)-cyclobutanacyclononaphane-5^6-yl)piperazin-1-yl)-3-fluoropiperidin-1-yl)-4-methylpyridin-2-yl)piperidine-2,6-dione]	89.6	92.0
(R)-3-(4-(4-(4-((7^1s,7^3s,E)-1^1,2^6-dimethyl-3-oxo-5^2,5^3-dihydro-1^1H,5^1H-9-oxa-4-aza-5(2,1)-benzo[d]imidazola-2(2,4)-pyridina-1(4,5)-pyrazola-7(1,3)-cyclobutanacyclononaphane-5^6-yl)piperazin-1-yl)piperidin-1-yl)-2,6-difluorophenyl)piperidine-2,6-dione [Example 6]	91.2	91.7

More lines, now with the values ahead:

Degradation H1975 # 28 DTC [1]	Degradation H1975 # 25-LTC [2]	Compound
73.2	72.7	Cc1cc2cc(n1)-c1cnn(C)c1OC[C@H]1C[C@@H](CN3/C(=N/C2=O)Nc2ccc(N4CCC5(CCN(C6CCN(c7cc(F)c([C@H]8CCC(=O)NC8=O)c(F)c7)CC6)C5)C4)cc23)C1 (stereo partly drawn) [Example 129, (3R)-3-(4-(4-(7-((7^1s,7^3s,E)-1^1,2^6-dimethyl-3-oxo-5^2,5^3-dihydro-1^1H,5^1H-9-oxa-4-aza-5(2,1)-benzo[d]imidazola-2(2,4)-pyridina-1(4,5)-pyrazola-7(1,3)-cyclobutanacyclononaphane-5^6-yl)-2,7-diazaspiro[4.4]nonan-2-yl)piperidin-1-yl)-2,6-difluorophenyl)piperidine-2,6-dione]
68.0	84.8	Cc1cc2cc(n1)-c1cnn(C)c1OC[C@H]1C[C@@H](CN3/C(=N/C2=O)Nc2ccc(N4CCN(C5CN(C6CCN(c7cnc(C8CCC(=O)NC8=O)cc7C)CC6)C5)CC4)cc23)C1 (some centres unmarked) [Example 131, 3-(5-(4-(3-(4-((7^1s,7^3s,E)-1^1,2^6-dimethyl-3-oxo-5^2,5^3-dihydro-1^1H,5^1H-9-oxa-4-aza-5(2,1)-benzo[d]imidazola-2(2,4)-pyridina-1(4,5)-pyrazola-7(1,3)-cyclobutanacyclononaphane-5^6-yl)piperazin-1-yl)azetidin-1-yl)piperidin-1-yl)-4-methylpyridin-2-yl)piperidine-2,6-dione]
85.0	87.0	Cc1cc2cc(n1)-c1cnn(C)c1OC[C@H]1C[C@@H](CN3/C(=N/C2=O)Nc2ccc(N(C)C4CC5(C4)CN(C4CCN(c6cc(F)c(C7CCC(=O)NC7=O)c(F)c6)CC4)C5)cc23)C1 (stereo partly drawn) [Example 136, (R)-3-(4-(4-(6-(((7^1s,7^3s,E)-1^1,2^6-dimethyl-3-oxo-5^2,5^3-dihydro-1^1H,5^1H-9-oxa-4-aza-5(2,1)-benzo[d]imidazola-2(2,4)-pyridina-1(4,5)-pyrazola-7(1,3)-cyclobutanacyclononaphane-5^6-yl)(methyl)amino)-2-azaspiro[3.3]heptan-2-yl)piperidin-1-yl)-2,6-difluorophenyl)piperidine-2,6-dione]
80.2	77.3	Cc1cc2cc(n1)-c1cnn(C)c1OC[C@H]1C[C@@H](CN3/C(=N/C2=O)Nc2ccc(N4CCN(C5CN(C6CCN(c7cc(F)c([C@H]8CCC(=O)NC8=O)c(F)c7)CC6)C5)CC4)cc23)C1 [Example 137, (R)-3-(4-(4-(3-(4-((7^1s,7^3s,E)-1^1,2^6-dimethyl-3-oxo-5^2,5^3-dihydro-1^1H,5^1H-9-oxa-4-aza-5(2,1)-benzo[d]imidazola-2(2,4)-pyridina-1(4,5)-pyrazola-7(1,3)-cyclobutanacyclononaphane-5^6-yl)piperazin-1-yl)azetidin-1-yl)piperidin-1-yl)-2,6-difluorophenyl)piperidine-2,6-dione]
90.9	88.4	Cc1cc2cc(n1)-c1cnn(C)c1OC[C@H]1C[C@@H](CN3/C(=N/C2=O)Nc2ccc(N4CCN([C@@H]5CCN(c6cnc(C7CCC(=O)NC7=O)cc6C)C[C@H]5F)CC4)cc23)C1 (stereo partly drawn) [Example 138, 3-(5-((3R,4R)-4-(4-((7^1s,7^3S,E)-1^1,2^6-dimethyl-3-oxo-5^2,5^3-dihydro-1^1H,5^1H-9-oxa-4-aza-5(2,1)-benzo[d]imidazola-2(2,4)-pyridina-1(4,5)-pyrazola-7(1,3)-cyclobutanacyclononaphane-5^6-yl)piperazin-1-yl)-3-fluoropiperidin-1-yl)-4-methylpyridin-2-yl)piperidine-2,6-dione]
